One assay has as its target T1, ADP/ATP translocase 3 (Homo sapiens, UniProt P12236).
T1 sequence (P12236 whole entry): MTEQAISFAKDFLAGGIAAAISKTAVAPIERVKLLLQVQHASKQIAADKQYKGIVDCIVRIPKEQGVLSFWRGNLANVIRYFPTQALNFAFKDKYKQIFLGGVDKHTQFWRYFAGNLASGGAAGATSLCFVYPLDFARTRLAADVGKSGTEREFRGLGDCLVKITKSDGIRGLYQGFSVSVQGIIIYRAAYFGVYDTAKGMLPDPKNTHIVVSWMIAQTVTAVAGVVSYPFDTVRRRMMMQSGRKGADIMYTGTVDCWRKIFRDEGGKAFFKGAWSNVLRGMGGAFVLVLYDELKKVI

For assay [1], the target named is T2, ATP-dependent 6-phosphofructokinase, platelet type (Homo sapiens, UniProt Q01813).
T2 sequence (Q01813 whole entry): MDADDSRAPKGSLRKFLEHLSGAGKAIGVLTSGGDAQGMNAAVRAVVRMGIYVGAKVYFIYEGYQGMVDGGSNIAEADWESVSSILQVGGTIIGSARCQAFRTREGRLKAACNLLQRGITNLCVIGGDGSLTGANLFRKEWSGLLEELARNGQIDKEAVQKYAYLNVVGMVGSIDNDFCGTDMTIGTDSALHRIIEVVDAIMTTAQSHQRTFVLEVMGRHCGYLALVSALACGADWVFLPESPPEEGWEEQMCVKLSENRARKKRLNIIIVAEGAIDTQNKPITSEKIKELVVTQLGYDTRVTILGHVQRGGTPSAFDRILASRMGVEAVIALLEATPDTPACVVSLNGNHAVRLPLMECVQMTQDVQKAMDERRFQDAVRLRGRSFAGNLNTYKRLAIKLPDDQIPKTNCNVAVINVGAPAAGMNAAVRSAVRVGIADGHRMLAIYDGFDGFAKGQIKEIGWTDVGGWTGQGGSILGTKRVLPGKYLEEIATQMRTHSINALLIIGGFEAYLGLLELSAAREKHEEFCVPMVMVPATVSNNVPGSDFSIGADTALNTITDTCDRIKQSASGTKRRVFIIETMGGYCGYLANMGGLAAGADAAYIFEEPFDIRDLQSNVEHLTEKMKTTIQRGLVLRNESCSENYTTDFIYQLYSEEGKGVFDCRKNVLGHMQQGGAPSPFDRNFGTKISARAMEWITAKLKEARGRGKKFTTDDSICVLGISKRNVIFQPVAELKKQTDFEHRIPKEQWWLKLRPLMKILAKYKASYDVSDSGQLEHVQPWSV

Assay [2] has as its target Cyclin-dependent kinase 12 (Homo sapiens, UniProt Q9NYV4).
A further assay deals with T3, Aurora kinase A (Homo sapiens, UniProt O14965).
T3 sequence (O14965 whole entry): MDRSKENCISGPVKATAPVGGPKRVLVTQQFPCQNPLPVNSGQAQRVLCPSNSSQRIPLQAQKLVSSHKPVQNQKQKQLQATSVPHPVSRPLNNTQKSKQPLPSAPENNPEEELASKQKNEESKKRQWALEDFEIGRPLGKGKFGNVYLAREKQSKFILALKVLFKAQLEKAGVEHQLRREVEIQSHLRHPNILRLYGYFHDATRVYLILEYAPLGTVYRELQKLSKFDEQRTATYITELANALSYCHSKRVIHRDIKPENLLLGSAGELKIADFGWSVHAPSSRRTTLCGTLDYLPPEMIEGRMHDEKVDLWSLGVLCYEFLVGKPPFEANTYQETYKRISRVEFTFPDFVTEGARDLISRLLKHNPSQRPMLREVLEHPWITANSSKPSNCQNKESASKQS

In assay [3] the target is T4, Phosphorylase b kinase gamma catalytic chain, liver/testis isoform (Homo sapiens, UniProt P15735).
T4 sequence (P15735 whole entry): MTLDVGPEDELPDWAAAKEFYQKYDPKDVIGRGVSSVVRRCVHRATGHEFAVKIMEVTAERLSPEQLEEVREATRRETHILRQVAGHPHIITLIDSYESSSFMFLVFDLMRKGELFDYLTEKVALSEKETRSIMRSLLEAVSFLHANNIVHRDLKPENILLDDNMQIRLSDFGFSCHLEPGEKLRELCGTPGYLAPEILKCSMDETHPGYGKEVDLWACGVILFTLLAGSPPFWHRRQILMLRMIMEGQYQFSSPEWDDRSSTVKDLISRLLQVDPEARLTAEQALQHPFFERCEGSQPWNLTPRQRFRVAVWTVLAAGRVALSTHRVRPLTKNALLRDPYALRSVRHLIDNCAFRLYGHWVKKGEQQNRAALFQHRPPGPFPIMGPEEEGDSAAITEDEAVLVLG

Assay [4] deals with T5, Serine/threonine-protein kinase TAO3 (Homo sapiens, UniProt Q9H2K8).
T5 sequence (Q9H2K8 whole entry): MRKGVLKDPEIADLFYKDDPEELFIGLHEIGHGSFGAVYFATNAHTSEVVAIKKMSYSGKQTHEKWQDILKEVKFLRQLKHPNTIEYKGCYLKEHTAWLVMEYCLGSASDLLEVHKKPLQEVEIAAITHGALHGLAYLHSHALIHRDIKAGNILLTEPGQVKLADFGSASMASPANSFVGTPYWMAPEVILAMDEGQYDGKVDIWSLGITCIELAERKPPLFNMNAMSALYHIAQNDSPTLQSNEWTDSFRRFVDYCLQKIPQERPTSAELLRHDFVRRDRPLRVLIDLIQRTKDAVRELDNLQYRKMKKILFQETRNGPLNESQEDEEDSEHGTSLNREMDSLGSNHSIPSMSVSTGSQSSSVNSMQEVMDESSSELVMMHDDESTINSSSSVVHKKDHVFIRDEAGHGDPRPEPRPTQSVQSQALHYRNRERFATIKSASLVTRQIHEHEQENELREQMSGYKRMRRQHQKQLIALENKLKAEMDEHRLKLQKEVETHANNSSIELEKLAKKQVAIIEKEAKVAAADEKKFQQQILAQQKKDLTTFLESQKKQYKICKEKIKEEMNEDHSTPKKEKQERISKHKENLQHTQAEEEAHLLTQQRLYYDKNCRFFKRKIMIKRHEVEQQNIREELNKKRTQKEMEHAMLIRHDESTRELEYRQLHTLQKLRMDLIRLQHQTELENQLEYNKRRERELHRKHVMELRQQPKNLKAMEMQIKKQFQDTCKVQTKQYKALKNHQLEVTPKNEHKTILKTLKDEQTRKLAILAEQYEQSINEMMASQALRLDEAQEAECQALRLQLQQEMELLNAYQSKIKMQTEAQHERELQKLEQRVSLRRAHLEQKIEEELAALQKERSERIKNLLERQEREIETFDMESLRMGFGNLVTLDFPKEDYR

Assay [5] deals with Cyclin-dependent kinase 1 (Homo sapiens, UniProt P06493).
Chain of Cyclin-dependent kinase 1 (P06493 whole entry): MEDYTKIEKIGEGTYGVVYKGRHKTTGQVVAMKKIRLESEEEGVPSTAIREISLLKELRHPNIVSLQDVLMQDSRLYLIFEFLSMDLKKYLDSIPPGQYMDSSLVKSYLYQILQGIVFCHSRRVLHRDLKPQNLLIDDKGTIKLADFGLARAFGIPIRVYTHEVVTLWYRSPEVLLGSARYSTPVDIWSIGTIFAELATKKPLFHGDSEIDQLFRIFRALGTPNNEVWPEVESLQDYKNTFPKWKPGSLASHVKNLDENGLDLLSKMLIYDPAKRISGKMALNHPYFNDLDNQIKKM
The target of assay [6] is Tyrosine-protein kinase Yes (Homo sapiens, UniProt P07947).
Chain of Tyrosine-protein kinase Yes (P07947 whole entry): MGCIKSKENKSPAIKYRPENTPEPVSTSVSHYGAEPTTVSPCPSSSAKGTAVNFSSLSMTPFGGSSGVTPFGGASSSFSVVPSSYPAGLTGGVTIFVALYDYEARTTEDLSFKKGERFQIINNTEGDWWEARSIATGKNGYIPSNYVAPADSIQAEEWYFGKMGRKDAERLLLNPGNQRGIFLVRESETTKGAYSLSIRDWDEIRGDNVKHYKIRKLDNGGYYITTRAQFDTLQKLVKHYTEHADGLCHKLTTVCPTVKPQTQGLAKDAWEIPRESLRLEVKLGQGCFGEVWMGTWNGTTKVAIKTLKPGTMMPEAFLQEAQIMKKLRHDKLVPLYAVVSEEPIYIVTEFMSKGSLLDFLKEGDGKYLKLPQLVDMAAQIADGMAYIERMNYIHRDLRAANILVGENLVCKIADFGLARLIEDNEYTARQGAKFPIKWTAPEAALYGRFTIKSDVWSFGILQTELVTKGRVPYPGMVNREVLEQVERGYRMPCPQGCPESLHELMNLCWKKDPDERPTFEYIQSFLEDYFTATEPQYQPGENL

A word on the Kd: it is the equilibrium constant for the complex coming apart.

Active and inactive are the calls of the source. For most assays here, no stated cut-off is given here; in the data, actives have a measured Kd and inactives only a lower limit. Some results are limits rather than exact numbers.

Chain of Cyclin-dependent kinase 12 (Q9NYV4 whole entry): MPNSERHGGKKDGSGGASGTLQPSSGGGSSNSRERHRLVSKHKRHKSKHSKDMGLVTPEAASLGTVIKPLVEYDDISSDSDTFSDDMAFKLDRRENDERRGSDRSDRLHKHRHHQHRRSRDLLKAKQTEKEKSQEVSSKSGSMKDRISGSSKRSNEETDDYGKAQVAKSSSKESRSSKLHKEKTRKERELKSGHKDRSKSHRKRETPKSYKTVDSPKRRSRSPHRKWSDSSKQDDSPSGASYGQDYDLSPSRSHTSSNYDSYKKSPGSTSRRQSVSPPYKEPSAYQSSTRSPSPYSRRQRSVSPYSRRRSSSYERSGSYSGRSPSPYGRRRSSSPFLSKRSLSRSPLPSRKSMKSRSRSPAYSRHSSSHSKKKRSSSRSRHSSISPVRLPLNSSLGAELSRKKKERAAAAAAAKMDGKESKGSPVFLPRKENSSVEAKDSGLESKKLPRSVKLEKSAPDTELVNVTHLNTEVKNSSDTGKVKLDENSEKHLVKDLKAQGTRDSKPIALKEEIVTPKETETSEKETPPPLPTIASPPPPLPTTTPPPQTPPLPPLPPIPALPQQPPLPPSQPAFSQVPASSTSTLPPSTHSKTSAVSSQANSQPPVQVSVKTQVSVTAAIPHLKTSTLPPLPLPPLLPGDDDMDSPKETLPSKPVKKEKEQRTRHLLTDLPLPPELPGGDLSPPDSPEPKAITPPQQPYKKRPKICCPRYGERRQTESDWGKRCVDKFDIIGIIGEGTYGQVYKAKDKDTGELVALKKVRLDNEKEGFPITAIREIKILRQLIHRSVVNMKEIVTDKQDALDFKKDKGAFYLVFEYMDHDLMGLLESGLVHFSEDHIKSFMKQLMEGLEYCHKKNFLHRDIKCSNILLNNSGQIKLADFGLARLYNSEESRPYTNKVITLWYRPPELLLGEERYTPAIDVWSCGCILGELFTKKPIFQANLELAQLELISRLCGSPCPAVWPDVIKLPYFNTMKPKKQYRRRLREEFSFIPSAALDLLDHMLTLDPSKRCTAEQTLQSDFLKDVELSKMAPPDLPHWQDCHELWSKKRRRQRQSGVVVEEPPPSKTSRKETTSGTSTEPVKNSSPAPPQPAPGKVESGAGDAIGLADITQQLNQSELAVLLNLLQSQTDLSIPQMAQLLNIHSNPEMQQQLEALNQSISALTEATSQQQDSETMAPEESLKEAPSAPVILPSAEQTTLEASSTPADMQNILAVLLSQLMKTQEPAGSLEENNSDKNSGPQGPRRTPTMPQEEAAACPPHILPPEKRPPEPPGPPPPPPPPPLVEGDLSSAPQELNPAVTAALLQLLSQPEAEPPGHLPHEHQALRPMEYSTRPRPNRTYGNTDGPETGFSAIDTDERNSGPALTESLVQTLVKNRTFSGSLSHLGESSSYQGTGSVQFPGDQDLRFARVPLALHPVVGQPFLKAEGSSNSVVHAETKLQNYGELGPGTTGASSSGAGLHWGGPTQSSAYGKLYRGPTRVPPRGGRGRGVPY

On to `CCc1cc2c(cc1N1CCC(N3CCOCC3)CC1)C(C)(C)c1[nH]c3cc(C#N)ccc3c1C2=O` [ALECTINIB], for which the Kd at ADP/ATP translocase 3 was > 30 µM (inactive); in assay [1], > 30 µM (inactive); in assay [2], > 30 µM (inactive); at Aurora kinase A it was > 30 µM (inactive); in assay [3] it was 1.71 µM (active); in assay [4], > 30 µM (inactive). Besides, the Kd in assay [5] and in assay [6] was > 30 µM (inactive) in each case.

In the case of `COc1cc2ncnc(Nc3ccc(F)c(Cl)c3)c2cc1NC(=O)/C=C/CN1CCCCC1` [DACOMITINIB ANHYDROUS], the Kd (at ADP/ATP translocase 3; in assay [1]; in assay [2]; at Aurora kinase A; in assay [3]; in assay [4]) was > 30 µM (inactive) in each case. Moreover, the Kd in assay [5] and in assay [6] was > 30 µM (inactive) throughout.

As to `Cc1c(NC(=O)OC[C@@H]2COCCN2)cn2ncnc(Nc3ccc4c(cnn4Cc4cccc(F)c4)c3)c12` [AC-480], the Kd (at ADP/ATP translocase 3; in assay [1]; in assay [2]; at Aurora kinase A; in assay [3]; in assay [4]) was > 30 µM (inactive) throughout. Besides, the Kd in assay [5] and in assay [6] was > 30 µM (inactive) each time.

On to `Cc1c(Cn2c(C)nc3c(C(=O)O)cc(N4CCOCC4)cc32)cccc1C(F)(F)F` [GSK-2636771], for which the Kd (at ADP/ATP translocase 3; in assay [1]; in assay [2]; on Aurora kinase A; in assay [3]; in assay [4]) was > 30 µM (inactive) throughout. Also, the Kd in assay [5] and in assay [6] was > 30 µM (inactive) in each case.

In the case of `Cc1ccc(C(=O)Nc2ccc(Oc3cc4cnn(C)c4cc3-c3cn[nH]c3)c(F)c2)c(=O)n1-c1ccc(F)cc1` [MERESTINIB], the Kd (on ADP/ATP translocase 3; in assay [1]; in assay [2]; on Aurora kinase A; in assay [3]; in assay [4]) was > 30 µM (inactive) in each case. The Kd in assay [5] and in assay [6] was > 30 µM (inactive) throughout.

On to `CNC(=O)c1cc(COc2nnc(Nc3ccc(Cl)cc3)c3ccoc23)ccn1` [TELATINIB], for which the Kd (at ADP/ATP translocase 3; in assay [1]; in assay [2]; at Aurora kinase A; in assay [3]; in assay [4]) was > 30 µM (inactive) in each case. Also, the Kd in assay [5] and in assay [6] was > 30 µM (inactive) each time.

Take `CNC(=O)c1cccc(-c2ccc3c(N4CCOC[C@@H]4C)nc(N4CCOC[C@@H]4C)nc3n2)c1` [VISTUSERTIB]: the Kd is > 30 µM (inactive) at ADP/ATP translocase 3; 0.983 µM (active) in assay [1]; > 30 µM (inactive) in assay [2]; > 30 µM (inactive) on Aurora kinase A; > 30 µM (inactive) in assay [3]; > 30 µM (inactive) in assay [4]. For the same compound, the Kd in assay [5] and in assay [6] was > 30 µM (inactive) throughout.

Take `O=C(NC[C@H](O)CO)c1ccncc1Nc1ccc(I)cc1F` [PIMASERTIB]: the Kd (at ADP/ATP translocase 3; in assay [1]; in assay [2]; at Aurora kinase A; in assay [3]; in assay [4]) was > 30 µM (inactive) throughout. The Kd in assay [5] and in assay [6] was > 30 µM (inactive) each time.

As to `O=C(NOC[C@H](O)CO)c1ccc(F)c(F)c1Nc1ccc(I)cc1F` [MIRDAMETINIB], the Kd (at ADP/ATP translocase 3; in assay [1]; in assay [2]; on Aurora kinase A; in assay [3]; in assay [4]) was > 30 µM (inactive) each time. Besides, the Kd in assay [5] and in assay [6] was > 30 µM (inactive) each time.

For the compound `CC1(COc2ccc3c(c2)ncn3-c2ccc3cccc(N4CCC(N)CC4)c3n2)COC1` [CRENOLANIB], the Kd at ADP/ATP translocase 3 was > 30 µM (inactive); in assay [1], > 30 µM (inactive); in assay [2] it was > 30 µM (inactive); at Aurora kinase A, > 30 µM (inactive); in assay [3], 5.02 µM (active); in assay [4], > 30 µM (inactive). In addition, the Kd in assay [5] is 1.38 µM (active); in assay [6], > 30 µM (inactive).

Consider `COc1ccc(-c2ccc3ncc4c(c3c2)n(-c2ccc(N3CCNCC3)c(C(F)(F)F)c2)c(=O)n4C)cn1` [BGT-226 FREE BASE], for which the Kd (on ADP/ATP translocase 3; in assay [1]; in assay [2]; at Aurora kinase A; in assay [3]; in assay [4]) was > 30 µM (inactive) each time. The Kd in assay [5] and in assay [6] was > 30 µM (inactive) throughout.
